Four compounds from patent publication US20240050477A1, “LIPID NANOPARTICLE” (NATIONAL UNIVERSITY CORPORATION HOKKAIDO UNIVERSITY, priority 2021, published 2024) can be followed below.

Series [1] in a line: pKa of lipid nanoparticle measured using TNS. Format: physicochemical. The following applies: apparent pKa of the pH-sensitive cationic lipid constituting a lipid nanoparticle. The method, then: The pKa of lipid nanoparticles was measured using […] (TNS). TNS (final concentration: 0.75 mM) and the lipid nanoparticles (final concentration: 30 mM) were first mixed in a buffer solution adjusted to each pH. The fluorescence intensity of the prepared mixed solution was measured using a microplate reader.

Series [2] deals with GAPDH mRNA in NK-92 cells. In words: GAPDH gene knockdown activity of siGAPDH-encapsulated lipid nanoparticle in NK-92 cells (RT-qPCR). The series is classed as cell-based, human. Conditions: siGAPDH-encapsulated LNP, siRNA 10-90 nM, 24 hours after transfection. The method, then: A NK cell line (NK-92 or NK-92MI) was transfected with each lipid nanoparticle. The knockdown activity of the siGAPDH- or siSMAD3-encapsulated lipid nanoparticle was examined by RT-qPCR using RNA extracted from the cells 24 hours later as a template.
First, the NK cell line was recovered into a 50 mL tube and centrifuged (130×g, 4° C., 5 min). The supernatant was removed, and the cells were suspended in 10 mL of a culture medium (Opti-MEM), counted, and then resuspended into 4×10^6 cells/mL in a culture medium. […]
The cells were recovered into a 1.5 mL tube from each well and centrifuged (800×g, 4° C., 3 min). […] Then, absorbance was measured using micro-volume spectrophotometer “Nano drop” (manufactured by Thermo Fisher Scientific Inc.) to measure the concentration and purity of the RNA.
Reverse-transcription reaction was performed with the recovered RNA as a template using an oligo dT primer and a random primer (6 mars) in a kit for reverse-transcription reaction (“PrimeScript RT reagent kit”, manufactured by Takara Bio Inc.). Then, a GAPDH or SMAD3 mRNA level was measured by real-time PCR with the obtained cDNA as a template using relative quantification based on the ΔΔCt method and β-actin (ACTB) as an endogenous gene. […]

The structures appear in SMILES notation.

The term pKa denotes the negative logarithm of the acid dissociation constant. `CCCCC/C=C\C/C=C\CCCCCCCCC(O)(CCCCCCCC/C=C\C/C=C\CCCCC)CCCCN(C)C` [YSK12-C4]: the pKa in series [1] was 8.2.

Take `CCCCCCCC/C=C\CCCCCCCC(=O)OCCCCCCC(O)(CCCCCCOC(=O)CCCCCCC/C=C\CCCCCCCC)CCCCOC(=O)C1CCN(C)CC1` [CL15H6]: the pKa in series [1] was found to be 7.3.

Regarding `CCCCCCCC/C=C\CCCCCCCC(=O)OCCCCCCC(O)(CCCCCCOC(=O)CCCCCCC/C=C\CCCCCCCC)CCCCN(C)C` [CL1H6], in series [2], the “GAPDH gene knockdown activity ([GAPDH mRNA level]/[ACTB mRNA level])” value was “high gene knockdown activity at a small content ratio”. The pKa in series [1] is 8.2.

Turning to `CCCCCCCC/C=C\CCCCCCCC(=O)OCCCCCCC(O)(CCCCCCOC(=O)CCCCCCC/C=C\CCCCCCCC)CCCCN(CCC)CCC` [CL4H6], the pKa in series [1] was 6.35.
